Activity calls are given as the source filed them. The calls are words filed in the database; no cut-off is given here.
Experiments:
Escherichia coli [1] = assay: Inhibition of Escherichia coli beta-glucuronidase assessed as inhibition of p-nitrophenyl-beta-D-glucuronide hydrolysis at 0.08 mM preincubated for 30 mins measured 30 mins after substrate addition by spectrophotometry
[2] = molecular target: T1, Enoyl-acyl-carrier protein reductase (Plasmodium falciparum) (UniProt Q965D5); assay: Inhibition of Plasmodium falciparum Enoyl-ACP reductase using crotonyl-CoA as substrate at 0.25 mM peincubated for 5 mins measured after 10 mins of substrate addition by UV-vis spectrophotometry
T1 sequence (whole entry): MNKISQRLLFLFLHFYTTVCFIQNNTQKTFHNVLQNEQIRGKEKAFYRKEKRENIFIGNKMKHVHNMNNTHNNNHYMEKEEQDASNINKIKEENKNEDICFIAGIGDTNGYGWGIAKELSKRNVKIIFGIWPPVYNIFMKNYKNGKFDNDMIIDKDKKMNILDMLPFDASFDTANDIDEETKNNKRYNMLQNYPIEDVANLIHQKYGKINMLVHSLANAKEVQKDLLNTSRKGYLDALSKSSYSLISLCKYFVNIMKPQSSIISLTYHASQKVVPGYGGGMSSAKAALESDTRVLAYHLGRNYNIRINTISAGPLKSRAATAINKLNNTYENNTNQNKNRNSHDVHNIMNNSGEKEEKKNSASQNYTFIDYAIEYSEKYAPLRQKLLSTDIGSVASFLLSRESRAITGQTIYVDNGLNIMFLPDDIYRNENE

[3] = molecular target: T1, Enoyl-acyl-carrier protein reductase (Plasmodium falciparum); assay: (§1) Inhibition of Plasmodium falciparum Enoyl-ACP reductase using crotonyl-CoA as substrate peincubated for 5 mins measured after 10 mins of substrate addition by UV-vis spectrophotometry
Escherichia coli [4] = assay: Inhibition of Escherichia coli beta-glucuronidase assessed as inhibition of p-nitrophenyl-beta-D-glucuronide hydrolysis at 0.05 mM preincubated for 30 mins measured 30 mins after substrate addition by spectrophotometry
Escherichia coli [5] = assay: Inhibition of Escherichia coli beta-glucuronidase assessed as inhibition of p-nitrophenyl-beta-D-glucuronide hydrolysis at 0.20 mM preincubated for 30 mins measured 30 mins after substrate addition by spectrophotometry
[6] = Inhibition of Escherichia coli beta-glucuronidase assessed as inhibition of p-nitrophenyl-beta-D-glucuronide hydrolysis preincubated for 30 mins measured 30 mins after substrate addition by spectrophotometry
[7] = molecular target: T2, Enoyl-acyl-carrier protein reductase (Plasmodium falciparum, UniProt Q965D5); assay: as §1
T2 sequence (Q965D5 whole entry): T1 sequence (whole entry)

[8] = molecular target: T1, Enoyl-acyl-carrier protein reductase (Plasmodium falciparum); details: 0.1 mM
Description: Inhibition of Plasmodium falciparum Enoyl-ACP reductase using crotonyl-CoA as substrate at 0.1 mM peincubated for 5 mins measured after 10 mins of substrate addition by UV-vis spectrophotometry

Escherichia coli [9] = assay: Ratio of D-saccharic acid-1,4-lactone IC50 to compound IC50 for Escherichia coli beta-glucuronidase
Escherichia coli [10] = assay: Inhibition of Escherichia coli beta-glucuronidase assessed as inhibition of p-nitrophenyl-beta-D-glucuronide hydrolysis at 0.10 mM preincubated for 30 mins measured 30 mins after substrate addition by spectrophotometry
[11] = molecular target: T1, Enoyl-acyl-carrier protein reductase (Plasmodium falciparum); assay: Inhibition of Plasmodium falciparum Enoyl-ACP reductase using crotonyl-CoA as substrate at 0.025 mM peincubated for 5 mins measured after 10 mins of substrate addition by UV-vis spectrophotometry
[12] = molecular target: T1, Enoyl-acyl-carrier protein reductase (Plasmodium falciparum); details: 0.05 mM
Description: Inhibition of Plasmodium falciparum Enoyl-ACP reductase using crotonyl-CoA as substrate at 0.05 mM peincubated for 5 mins measured after 10 mins of substrate addition by UV-vis spectrophotometry

[13] = molecular target: T1, Enoyl-acyl-carrier protein reductase (Plasmodium falciparum); assay: Inhibition of Plasmodium falciparum Enoyl-ACP reductase using crotonyl-CoA as substrate at 0.15 mM peincubated for 5 mins measured after 10 mins of substrate addition by UV-vis spectrophotometry

| SMILES | inhibition [2] | inhibition (Escherichia coli [5]) [%] | IC50 [6] [µM] | also measured |
| --- | --- | --- | --- | --- |
| CC1(C)C=Cc2c(cc3occ(-c4ccc(O)cc4)c(=O)c3c2O)O1 | 12.6% |  |  | inhibition (Escherichia coli [1]): 17.6% |
| CCCCC/C=C/CCCCCCC[C@@H](O)[C@@H](O)[C@H](CO)NC(=O)[C@H](O)CCCCCCCCCCCCCCCCCCCCCC | inactive |  |  | inhibition (Escherichia coli [1]): 1.7%; inhibition [3]: inactive |
| C[C@@H]1CC[C@]2(C(=O)O)CC[C@]3(C)C(=CC[C@@H]4[C@@]5(C)C[C@@H](O)[C@H](OC(=O)/C=C/c6ccc(O)cc6)C(C)(C)[C@@H]5CC[C@]43C)[C@@H]2[C@]1(C)O | 3.9% |  |  | inhibition (Escherichia coli [1]): 15.9% |
| O=C(O)[C@@H](O)[C@H]1OC(=O)[C@H](O)[C@H]1O |  |  |  | inhibition (Escherichia coli [4]): 99.5% |
| O=C(O)c1ccc(O)c(O)c1 |  | 23.5 |  |  |
| O=c1cc(-c2ccc(O)cc2)oc2cc(O)cc(O)c12 |  | 15.7 |  |  |
| COc1c(-c2ccc(O)c(O)c2)oc2cc(O)cc(O)c2c1=O [3-O-METHYLQUERCETIN] |  | 85.2 | 44.6 | IC50 [7]: 35.2 µM; inhibition [8]: 88.2% |
| O=c1c(O)c(-c2ccc(O)cc2)oc2cc(O)cc(O)c12 [KAEMPFEROL] | 6.5% | 87.5 | 27.6 |  |
| CC1=C[C@H](c2cc(-c3coc4cc(O)cc(O)c4c3=O)ccc2O)[C@](C)(/C=C/c2cc(-c3coc4cc(O)cc(O)c4c3=O)ccc2O)CC1 [MUCUSISOFLAVONE A] | inactive | 98.7 | 0.68 | inhibition [3]: inactive; Ratio IC50 (Escherichia coli [9]): 71 |
| CC(C)=C[C@@H]1C[C@](C)(/C=C/c2cc(-c3coc4cc(O)cc(O)c4c3=O)ccc2O)Oc2ccc(-c3coc4cc(O)cc(O)c4c3=O)cc21 [MUCUSISOFLAVONE B] | inactive |  | 14 | inhibition (Escherichia coli [10]): 70.1%; inhibition [3]: inactive |
| CC(C)=CCc1cc(-c2coc3c(C(C=C(C)C)c4cc(-c5coc6cc(O)cc(O)c6c5=O)ccc4O)c(O)cc(O)c3c2=O)ccc1O (centres undefined) [MUCUSISOFLAVONE C] |  |  | 3.08 | inhibition (Escherichia coli [10]): 94%; IC50 [7]: 7.69 µM; inhibition [11]: 89.1% |
| Oc1cc(Cl)ccc1Oc1ccc(Cl)cc1Cl [TRICLOSAN] |  |  |  | IC50 [7]: 0.2 µM; inhibition [12]: 99.5% |
| CC(C)=CCc1c(O)cc2occ(-c3ccc(O)cc3)c(=O)c2c1O [WIGHTEONE] |  | 97.3 | 4.03 | inhibition [13]: 42.6% |
| COc1ccc(C(=O)O)cc1 [p-ANISIC ACID] | inactive | 66.2 | 124 | inhibition [3]: inactive |

— ChEMBL document CHEMBL1811896, “Isoflavone dimers and other bioactive constituents from the figs of Ficus mucuso” (J Nat Prod, 2011)
